# Literature values, collected in patent US20050042196A1, “Antimicrobial phenol containing cyanoacrylate compositions” (priority 2003, published 2005).
# Conditions: aqueous
compound,measurement,value
[O-][Cl+3]([O-])([O-])O [perchloric acid],pKa,−5
